According to patent US20210244028A1, “TREATMENT FOR REMOVING ECTOPARASITES FROM FISH” (priority 2018, published 2021):
Several values for one entry are separate records, joined by “and”; a condition that tells them apart may be missing. Equal entries are not always repeated. Where two headings read alike, the source gives them in different places.

Legend:
[1] = test system: azamethiphos- and deltamethrin-resistant sea lice; test: In vitro bath exposure of isolated sea lice (Example 6); details: 60 minutes exposure, registered approx. 20 h after end of exposure
Protocol: A trial was performed to ensure there was no cross-resistance between azamethiphos- and deltamethrin-resistant sea lice and neonicotinoids. Both pre-adult and adult stages (mobile stages) of both sexes were used, and they were equally distributed among groups. The sea lice were exposed to imidacloprid for 60 minutes, azamethiphos for 60 minutes and deltamethrin for 30 minutes in one litre baths at a range of concentrations (Tables 6, 7 and 8). The sea lice were transferred to clean aerated seawater after treatment. The temperature of the seawater during the experiment was 12° C., but during exposure the temperature raised to approx. 14° C. in regimes exposed for 60 min. (imidacloprid and azamethiphos) and to 13° C. for the regime exposed in 30 minutes (deltamethrin).
The numbers of live and immobilised (including killed) lice in each regime were registered approximately 20 h after end of exposure. Each louse was individually investigated.

[2] = test system: Salmon lice; test: Bath treatment of lice-infected Atlantic salmon, percent lice removed (Example 7); assay type: in vivo; details: 0.1 mg/l, 30 minutes, duplicate, 3 fish per test
Protocol: To determine the concentration- and time-dependence of imidacloprid treatment in vivo, Atlantic salmon (average of 320.9 g) were challenged with imidacloprid in seawater ([…] salinity) at 12° C. The water level in the tank was lowered and aeration was employed during administration of the active. The salmon louse copepodid culture was counted and adjusted to obtain a target level of around 40 copepodids per fish in the challenge tank at each challenge time point.
Salmon lice on the fish were counted using standard methods. Only lice on the fish's outer surface, not including gills and oral/buccal cavities, were investigated.
Numbers of dissociated lice in tank water or attached to the tank walls were recorded. Lice in the tank water were collected and assessed for ability to attach by suction to a smooth plastic surface immediately after treatment and again after 30-60 minutes (to assess possible revival). […]
To terminate the treatment, the inner compartment with treated fish was lifted to the surface and drained, then fish were transferred directly and without water to a second basin with a lethal overdose of anaesthetic and left until dead. All lice remaining on these fish and lice that fell off in the anaesthetic bath were recorded. […]

[3] = test system: Lepeophtheirus salmonis; details: for percentage of sea lice that dropped from treated fish at the end of the treatment period / knockdown times (mean±SEM) / percentage of lice for which their knockdown time equalled that of the exposure time: 20 ppm (nitenpyram 19 ppm); for percentage of sea lice that dropped from treated fish at the end of the treatment period: culled fish; for knockdown times (mean±SEM) / percentage of lice for which their knockdown time equalled that of the exposure time: * only one louse knocked down
Protocol: The fish were acclimatised until normal feeding behaviour resumed, up to a maximum of 10 days, prior to challenge. The fish were housed in 750 litre tanks at a stocking density of no greater than 35 kg/m3. Tanks were provided with a continuous supply of seawater at a flow rate greater than 5 L/min at a temperature of 4.8-10.4° C. The photoperiod was set at 12 hours light: 12 hours dark.
The fish were challenged in a static bath with copepodid instar of Lepeophtheirus salmonis with the appearance of egg strings freshly removed from adult female lice at a target titre of 1,250-1,700 copepodids per tank
Egg strings were harvested from gravid sea lice and incubated in upwelling chambers until nauplii eclosion. Nauplii were allowed to moult through to the copepodid instar (5 days at approx. 10° C.) and then the tank water was filtered through a 100 μm mesh before re-suspending the copepodids in 225 mL of sea water. A 25 mL sample was removed which was then split into 1-2 mL samples in a 24-well plate and the nauplii/copepodids were counted under a stereo microscope. When abundance was sufficient and a minimum of 80% were copepodids the fish were challenged for 8 hours under static flow in the dark.
Fish were randomly selected from tanks, lightly sedated in a 90 ppm MS222 solution sufficient only to induce loss of equilibrium before being sacrificed by a non-recoverable blow to the head. Between 4 and 33 fish were required per treatment.
Culled fish were then suspended in treatment tanks. Fish were suspended in the tank horizontally from cable ties (one through the opercular cavity, one around the peduncle) and wire attached to a wooden rod). One 20 L tank of test item at 20 ppm was used per day. Lice on culled fish were exposed for either 5, 10, 15, 30 or 60 minutes (negative control was only exposed for 60 minutes as this would cover the longest exposure period to be tested). The order within treatment was randomised.
(§1) Lice were monitored continuously for the duration of the exposure and behavioural observations noted, including detachment of lice from fish. At the end of exposure lice were either removed from the tank or fish, placed into small vented plastic screw-top containers (125 mL, LDPE, 25 mm hole drilled into lid and secured with 200 μm mesh), and transferred to a clean tank supplied with filtered sea water and held there for 24 h. Lice which had detached from fish were kept separate from those that had not detached.
On the day of exposure, 200 mg of the test ectoparasite treatments was added to 1 L of sea water. Only 192 mg of nitenpyram was supplied. The solution was mechanically stirred for 30 minutes, using a stirring plate and magnetic flea (VWR), at a speed sufficient to generate a strong vortex to ensure a homogenous solution. This was then transferred into an approx. 25 L clear plastic tank containing 9 L of sea water. The solution was then mixed for a further 10 minutes using a small pump (Fluval Sea CP1), which was then removed from the tank prior to addition of fish.
Each treatment requiring 1 to 4 fish per individual treatment per replicate and 2 to 13 fish per group per replicate. Treatments with negative control (sea water), dinotefuran, clothianidin and thiamethoxam were replicated twice, and for imidacloprid three times. There was only one replicate per treatment for nitenpyram. The mean number of lice used per individual treatment was 5.5 to 10, with the mean per group being 6.2-7.2 lice.

[4] = test system: Lepeophtheirus salmonis; details: for percentage responsiveness of lice recovered from tank at treatment end at 24 hours post-treatment: lice knocked off fish
Protocol: as §1
24 h post-treatment lice were removed from the screw-top containers to check if they were alive and, if so, if they were responsive. Categories were defined as follows: alive—movement detected; responsive—alive and actively avoids stimulation in a coordinated manner; dead—no movement detected.
Lice defined as responsive could potentially re-attach to a fish. After assessment lice were transferred to 70% alcohol in case determination of instar and sex was required.

[5] = exposure 5 min, 20 ppm (nitenpyram 19 ppm), 24 h post-treatment
[6] = exposure 10 min, 20 ppm (nitenpyram 19 ppm), 24 h post-treatment
[7] = exposure 15 min, 20 ppm (nitenpyram 19 ppm), 24 h post-treatment
[8] = exposure 15 min, 20 ppm (nitenpyram 19 ppm)
[9] = exposure 30 min, 20 ppm (nitenpyram 19 ppm), 24 h post-treatment
[10] = exposure 30 min, 20 ppm (nitenpyram 19 ppm)
[11] = exposure 60 min, 20 ppm (nitenpyram 19 ppm), 24 h post-treatment
[12] = exposure 60 min, 20 ppm (nitenpyram 19 ppm)

COP(=O)(OC)SCn1c(=O)oc2cc(Cl)cnc21 [azamethiphos]
% effect ([1]; 5 ppm): 0%
Immobilised ([1]; 5 ppm): 0
Live ([1]; 5 ppm): 10
% effect ([1]; 10 ppm): 10%
Immobilised ([1]; 10 ppm): 1
Live ([1]; 10 ppm): 9
% effect ([1]; 15 ppm): 0%
Immobilised ([1]; 15 ppm): 0
Live ([1]; 15 ppm): 10
% effect ([1]; 20 ppm): 10% and 20%
Immobilised ([1]; 20 ppm): 1 and 2
Live ([1]; 20 ppm): 9 and 8
Live ([1]; 30 ppm): 9 and 6
% Removal [2]: 3.0^33% and 3.8^52%

CN/C(=N\[N+](=O)[O-])NCc1cnc(Cl)s1 [clothianidin]
percentage of sea lice that dropped from treated fish at the end of the treatment period ([3]; exposure 5 min): 0%
percentage of sea lice that dropped from treated fish at the end of the treatment period ([3]; exposure 10 min): 0%
percentage of sea lice that dropped from treated fish at the end of the treatment period ([3]; exposure 15 min): 9.1%
knockdown times (mean±SEM) ([3]; exposure 15 min): 900* seconds
percentage of lice for which their knockdown time equalled that of the exposure time ([3]; exposure 15 min): 100* %
percentage of sea lice that dropped from treated fish at the end of the treatment period ([3]; exposure 30 min): 69.2%
knockdown times (mean±SEM) ([3]; exposure 30 min): 1706 ± 71 s
percentage of lice for which their knockdown time equalled that of the exposure time ([3]; exposure 30 min): 77.8%
percentage of sea lice that dropped from treated fish at the end of the treatment period ([3]; exposure 60 min): 54.5%
knockdown times (mean±SEM) ([3]; exposure 60 min): 2289 ± 424 s
percentage of lice for which their knockdown time equalled that of the exposure time ([3]; exposure 60 min): 33.3%
percentage responsiveness for sea lice recovered from fish at the end of the treatment period [4, 5]: 100%
percentage responsiveness for sea lice recovered from fish at the end of the treatment period [4, 6]: 93%
percentage responsiveness for sea lice recovered from fish at the end of the treatment period [4, 7]: 90%
percentage responsiveness of lice recovered from tank at treatment end at 24 hours post-treatment [4, 8]: 0%
percentage responsiveness for sea lice recovered from fish at the end of the treatment period [4, 9]: 75%
percentage responsiveness of lice recovered from tank at treatment end at 24 hours post-treatment [4, 10]: 44%
percentage responsiveness for sea lice recovered from fish at the end of the treatment period [4, 11]: 100%
percentage responsiveness of lice recovered from tank at treatment end at 24 hours post-treatment [4, 12]: 33%

CN/C(=N/CC1CCOC1)N[N+](=O)[O-] (stereo not shown) [dinotefuran]
percentage of sea lice that dropped from treated fish at the end of the treatment period ([3]; exposure 5 min): 0%
percentage of sea lice that dropped from treated fish at the end of the treatment period ([3]; exposure 10 min): 0%
percentage of sea lice that dropped from treated fish at the end of the treatment period ([3]; exposure 15 min): 0%
knockdown times (mean±SEM) ([3]; exposure 15 min): 900* seconds
percentage of lice for which their knockdown time equalled that of the exposure time ([3]; exposure 15 min): 100* %
percentage of sea lice that dropped from treated fish at the end of the treatment period ([3]; exposure 30 min): 7.7%
knockdown times (mean±SEM) ([3]; exposure 30 min): 1800* seconds
percentage of lice for which their knockdown time equalled that of the exposure time ([3]; exposure 30 min): 100* %
percentage of sea lice that dropped from treated fish at the end of the treatment period ([3]; exposure 60 min): 53.3%
knockdown times (mean±SEM) ([3]; exposure 60 min): 3109 ± 224 s
percentage of lice for which their knockdown time equalled that of the exposure time ([3]; exposure 60 min): 25%
percentage responsiveness for sea lice recovered from fish at the end of the treatment period [4]: 88% and 73% and 100% and 69% and 83%
percentage responsiveness of lice recovered from tank at treatment end at 24 hours post-treatment [4, 8]: 100%
percentage responsiveness of lice recovered from tank at treatment end at 24 hours post-treatment [4, 10]: 0%
percentage responsiveness of lice recovered from tank at treatment end at 24 hours post-treatment [4, 12]: 71%

CCN(Cc1ccc(Cl)nc1)/C(=C/[N+](=O)[O-])NC [nitenpyram]
percentage of sea lice that dropped from treated fish at the end of the treatment period ([3]; exposure 5 min): 0%
percentage of sea lice that dropped from treated fish at the end of the treatment period ([3]; exposure 10 min): 0%
percentage of sea lice that dropped from treated fish at the end of the treatment period ([3]; exposure 15 min): 16.7%
knockdown times (mean±SEM) ([3]; exposure 15 min): 900* seconds
percentage of lice for which their knockdown time equalled that of the exposure time ([3]; exposure 15 min): 100* %
percentage of sea lice that dropped from treated fish at the end of the treatment period ([3]; exposure 30 min): 0%
percentage of sea lice that dropped from treated fish at the end of the treatment period ([3]; exposure 60 min): 14.3%
knockdown times (mean±SEM) ([3]; exposure 60 min): 3600* seconds
percentage of lice for which their knockdown time equalled that of the exposure time ([3]; exposure 60 min): 100* %
Responsiveness of lice still on fish at end of exposure ([4]; all exposure durations (5-60 min), 19 ppm): unaffected at all exposure durations
percentage responsiveness for sea lice recovered from fish at the end of the treatment period [4, 5]: 100%
percentage responsiveness for sea lice recovered from fish at the end of the treatment period [4, 6]: 100%
percentage responsiveness for sea lice recovered from fish at the end of the treatment period [4, 7]: 100%
percentage responsiveness of lice recovered from tank at treatment end at 24 hours post-treatment [4, 8]: 0%
percentage responsiveness for sea lice recovered from fish at the end of the treatment period [4, 9]: 100%
percentage responsiveness for sea lice recovered from fish at the end of the treatment period [4, 11]: 100%
percentage responsiveness of lice recovered from tank at treatment end at 24 hours post-treatment [4, 12]: 0%

CN1COCN(Cc2cnc(Cl)s2)/C1=N\[N+](=O)[O-] [thiamethoxam]
Knockdown effect ([3]; 20 ppm, exposure 5 to 60 minutes): No knockdown
percentage of sea lice that dropped from treated fish at the end of the treatment period ([3]; exposure 5 min): 0%
percentage of sea lice that dropped from treated fish at the end of the treatment period ([3]; exposure 10 min): 0%
percentage of sea lice that dropped from treated fish at the end of the treatment period ([3]; exposure 15 min): 0%
percentage of sea lice that dropped from treated fish at the end of the treatment period ([3]; exposure 30 min): 0%
percentage of sea lice that dropped from treated fish at the end of the treatment period ([3]; exposure 60 min): 0%
percentage responsiveness for sea lice recovered from fish at the end of the treatment period [4, 5]: 100%
percentage responsiveness for sea lice recovered from fish at the end of the treatment period [4, 6]: 100%
percentage responsiveness for sea lice recovered from fish at the end of the treatment period [4, 7]: 100%
percentage responsiveness for sea lice recovered from fish at the end of the treatment period [4, 9]: 100%
percentage responsiveness for sea lice recovered from fish at the end of the treatment period [4, 11]: 92%
